Reference: EP0807626A1, “N-HYDROXYUREA DERIVATIVES” (Nikken Chemicals Company, Limited, priority 1995, dated 1996)

Key:
thromboxane synthase = molecular target: T1, thromboxane synthase (Homo sapiens, UniProt P24557); assay: Test of thromboxane synthase inhibitory action (production of thromboxane B2 in human platelet microsomes); assay type: biochemical; conditions: suppressing production of thromboxane (thromboxane B2), prostaglandin H2, EIA, read-out: TxSI IC50
T1 construct: containing human platelet microsomes (50 µg protein/ml) and the test compound; from tissue; host or cells: human platelet microsomes
T1 sequence (P24557 1-533): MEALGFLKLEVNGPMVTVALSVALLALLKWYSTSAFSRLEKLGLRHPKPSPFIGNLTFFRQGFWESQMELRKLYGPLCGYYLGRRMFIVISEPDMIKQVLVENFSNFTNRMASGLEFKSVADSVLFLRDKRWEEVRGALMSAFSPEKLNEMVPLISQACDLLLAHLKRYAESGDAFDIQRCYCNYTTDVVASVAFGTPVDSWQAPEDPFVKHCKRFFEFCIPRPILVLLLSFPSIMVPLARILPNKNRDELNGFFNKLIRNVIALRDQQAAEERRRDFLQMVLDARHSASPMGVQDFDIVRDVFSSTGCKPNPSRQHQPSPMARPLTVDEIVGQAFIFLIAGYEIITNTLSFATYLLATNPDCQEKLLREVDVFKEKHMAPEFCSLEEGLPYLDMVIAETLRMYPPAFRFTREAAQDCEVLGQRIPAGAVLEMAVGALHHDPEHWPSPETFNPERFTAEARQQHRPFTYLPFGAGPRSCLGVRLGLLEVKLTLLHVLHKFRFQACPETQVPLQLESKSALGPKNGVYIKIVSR
Procedure: Human platelet microsomes were used and a test of the thromboxane synthase inhibitory activity of the compounds was determined by the amount of production of thromboxane B2 as the thromboxane A2 stable metabdite.
[…] A reaction was initiated to added prostaglandin H2 (100 ng/2 µl), and terminated with 1N hydrocloric acid. Then neutralized by 1M Tris-base, and centrifuged at 3000 rpm for 20 minutes. The content of the thromboxane B2 in the supernatent was measured by the EIA method (Cayman Co. kit).
As the test compound, the same compounds as in Test Example 1 were used.

lipoxygenase = molecular target: T2, lipoxygenase (Rattus norvegicus, UniProt P12527); assay: Test of lipoxygenase inhibitory action (production of leukotriene B4 in rat polymorphonuclear leukocytes); assay type: cell-based; conditions: inhibiting the production of leukotriene B4, calcium ionophore A-23187, EIA, read-out: LTBI IC50
T2 construct: the peritoneal cavities were lavaged and the polymorphonuclear leukocytes were recovered; endogenous in cells; host or cells: casein-elicited peritoneal polymorphonuclear leukocytes of Wistar male rats
T2 sequence (P12527 1-673): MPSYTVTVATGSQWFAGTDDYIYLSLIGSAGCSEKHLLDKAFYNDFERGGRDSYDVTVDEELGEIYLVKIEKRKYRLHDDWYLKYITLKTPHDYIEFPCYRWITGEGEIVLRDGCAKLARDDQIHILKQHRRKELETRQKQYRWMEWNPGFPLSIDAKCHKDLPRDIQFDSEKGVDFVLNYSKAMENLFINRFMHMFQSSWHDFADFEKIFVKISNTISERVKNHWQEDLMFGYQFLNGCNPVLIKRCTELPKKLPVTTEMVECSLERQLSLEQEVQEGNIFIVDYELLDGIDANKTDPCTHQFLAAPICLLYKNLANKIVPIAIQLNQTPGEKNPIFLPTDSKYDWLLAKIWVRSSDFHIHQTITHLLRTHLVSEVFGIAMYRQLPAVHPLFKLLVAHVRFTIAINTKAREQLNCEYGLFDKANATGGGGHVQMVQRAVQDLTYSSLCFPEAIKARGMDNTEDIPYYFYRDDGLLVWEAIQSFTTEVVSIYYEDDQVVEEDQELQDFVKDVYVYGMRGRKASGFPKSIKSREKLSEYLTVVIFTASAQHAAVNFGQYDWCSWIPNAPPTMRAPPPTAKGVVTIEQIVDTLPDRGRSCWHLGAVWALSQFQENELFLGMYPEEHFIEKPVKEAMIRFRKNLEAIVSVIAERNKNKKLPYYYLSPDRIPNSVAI
Procedure: Using rat polymorphonuclear leukocytes, a test of the lipoxygenase inhibitory activity of the test compounds was determined the amount of production of leukotriene B4.
Wistar male rats (Japan Clea) were intraperitoneally administered with 12% sodium casein. After 16 hours, the peritoneal cavities were lavaged and the polymorphonuclear leukocytes were recovered. The obtained polymorphonuclear leukocytes were suspended in a phosphate buffer (137 mM NaCl, 3 mM KCl, 8 mM Na2HPO4, 2 mM KH2PO4) (2.5 × 10^5 cells/0.4 ml), then the incubation was carried out at 37°C for 10 minutes the test compound (final concentration 10^-5M) was added and then for 5 minutes after a calcium solution (10 mM CaCl2, 0.86% NaCl) 0.1 ml was added, then 1.25 µl of calcium ionophore (20 µM, A-23187) was added and the reaction started. Five minutes after the addition, 250 µl of methanol was added to stop the reaction. After the reaction was stopped, the resultant mixture was centrifuged for 20 minutes (4°C, 3000 rpm), then the amount of leukotriene B4 in the supernatant was measured by the EIA method (Cayman Co. kit).
As the test compound, the above mentioned Compound 1 to Compound 4, Compound 9 to Compound 11, Compound 22 to Compound 26, Compound 28, Compound 29, compound 32, Compound 33, and Compound 40 to Compound 48 were used.

[1] = tested on: antigen-induced bronchoconstriction; assay: Antigen-induced bronchoconstriction model of guinea pig (Konzett-Rossler method); assay type: in vivo; conditions: Cavia porcellus, po, 1 h; guinea pigs sensitized by ovalbumin, orally administered, one hour after administration; read-out: Suppression of Respiratory Constriction (ED50: mg/kg)
Procedure: Guinea pigs sensitized by ovalbumin were used and orally administered with the test compound suspended in 5% gum arabic. The activity for suppressing antigen-induced bronchoconstriction after one hour after administration was measured by the Konzett-Rossler method.
Each of the sensitized guinea pigs was anesthesized by 35 mg/kg pentobarbital, a airway cannula was inserted into the trachea and connected to an artificial respirator and transducer, a vein cannula was inserted into the jugular vein, and treatment was performed by 5 mg/kg soxamethonium and 5 mg/kg mepyramine. Next, the guinea pig was inhaled a nebulized ovalbumin to cause bronchoconstriction and the activity in suppressing bronchoconstriction was found from the ratio of the amount of overflow volume to the detector to the amount of air blown volume from the artificial respirator.
As the test compound, the Compound 7 was used. […]

| SMILES | IC50 (thromboxane synthase) [nM] | IC50 (lipoxygenase) [nM] | ED50 [1] [mg/kg] |
| --- | --- | --- | --- |
| NC(=O)N(O)CCCCC/C=C(\c1ccccc1)c1cccnc1 [Compound 1, N-hydroxy-N-[(E)-7-phenyl-7-(3-pyridyl)-6-hepten-1-yl]urea] | 0.9 | 400 | – |
| NC(=O)N(O)CCCCC/C=C(/c1ccccc1)c1cccnc1 [Compound 2, N-hydroxy-N-[(Z)-7-phenyl-7-(3-pyridyl)-6-hepten-1-yl]urea] | 20 | 60 | – |
| O=C(NC1CCCCC1)N(O)CCCCC/C=C(/c1ccccc1)c1cccnc1 [Compound 3, N'-cyclohexyl-N-hydroxy-N-[(Z)-7-phenyl-7-(3-pyridyl)-6-hepten-1-yl]urea] | 9 | 50 | – |
| NC(=O)N(O)CCC=C(c1cccnc1)c1cccc(C(F)(F)F)c1 [Compound 4, N-hydroxy-N-[4-(3-pyridyl)-4-(3-trifluoromethylphenyl)-3-buten-1-yl] urea] | 6 | 2000 | – |
| NC(=O)N(O)CCCC(c1ccccc1)c1cccnc1 (centres unmarked) [Compound 7, N-hydroxy-N-[4-phenyl-4-(3-pyridyl)butyl]urea] | – | – | 70 |
| O=C(NC1CCCCC1)N(O)CCCC(c1ccccc1)c1cccnc1 (centres unmarked) [Compound 9, N'-cyclohexyl-N-hydroxy-N-[4-phenyl-4-(3-pyridyl)butyl]urea] | 0.3 | 1000 | – |
| ON(CCCC(c1ccccc1)c1cccnc1)C(=S)NC1CCCCC1 (centres unmarked) [Compound 10, N'-cyclohexyl-N-hydroxy-N-[4-phenyl-4-(3-pyridyl)butyl]thiourea] | 0.9 | 300 | – |
| COc1cccc(NC(=O)N(O)CCCC(c2ccccc2)c2cccnc2)c1 (centres unmarked) [Compound 11, N-hydroxy-N'-(3-methoxyphenyl)-N-[4-phenyl-4-(3-pyridyl)butyl]urea] | 2 | 500 | – |
| NC(=S)N(O)CCCCCC(c1ccccc1)c1cccnc1 (centres unmarked) [Compound 22, N-hydroxy-N-[6-phenyl-6-(3-pyridyl)hexyl]thiourea] | 4 | 200 | – |
| CCNC(=O)N(O)CCCCCC(c1ccccc1)c1cccnc1 (centres unmarked) [Compound 23, N'-ethyl-N-hydroxy-N-[6-phenyl-6-(3-pyridyl)hexyl]urea] | 6 | 200 | – |
| NC(=O)N(O)CCCCCCC(c1ccccc1)c1cccnc1 (centres unmarked) [Compound 24, N-hydroxy-N-[7-phenyl-7-(3-pyridyl)heptyl]urea] | 10 | 80 | – |
| O=C(NC1CCCCC1)N(O)CCCCCCC(c1ccccc1)c1cccnc1 (centres unmarked) [Compound 25, N'-cyclohexyl-N-hydroxy-N-[7-phenyl-7-(3-pyridyl)heptyl]urea] | 5 | 60 | – |
| COc1cccc(NC(=O)N(O)CCCCCCC(c2ccccc2)c2cccnc2)c1 (centres unmarked) [Compound 26, N-hydroxy-N'-(3-methoxyphenyl)-N-[7-phenyl-7-(3-pyridyl)heptyl]urea] | 2 | 40 | – |
| CC(CCCCCC(c1ccccc1)c1cccnc1)N(O)C(N)=O (centres unmarked) [Compound 28, N-hydroxy-N-[1-methyl-7-phenyl-7-(3-pyridyl)heptyl]urea] | 7 | 100 | – |
| ON(CCCCCCCC(c1ccccc1)c1cccnc1)C(=S)Nc1ccccc1 (centres unmarked) [Compound 29, N-hydroxy-N'-phenyl-N-[8-phenyl-8-(3-pyridyl)octyl]thiourea] | 2 | 40 | – |
| CC(CCCCCCCC(c1ccccc1)c1cccnc1)N(O)C(=S)NC1CCCCC1 (centres unmarked) [Compound 32, N'-cyclohexyl-N-hydroxy-N-[1-methyl-9-phenyl-9-(3-pyridyl)nonyl]thiourea] | 9 | 100 | – |
| NC(=O)N(O)CCCCCCCCCC(c1ccccc1)c1cccnc1 (centres unmarked) [Compound 33, N-hydroxy-N-[10-phenyl-10-(3-pyridyl)decyl]urea] | 10 | 10 | – |
| NC(=O)N(O)C/C=C/CCCC(c1ccccc1)c1cccnc1 (centres unmarked) [Compound 40, N-hydroxy-N-[(E)-7-phenyl-7-(3-pyridyl)-2-hepten-1-yl]urea] | 30 | 200 | – |
| CC(/C=C/CCCC(c1ccccc1)c1cccnc1)N(O)C(N)=O (centres unmarked) [Compound 41, N-hydroxy-N-[(E)-1-methyl-7-phenyl-7-(3-pyridyl)-2-hepten-1-yl]urea] | 5 | 200 | – |
| NC(=O)N(O)Cc1cccc(OC(c2ccccc2)c2cccnc2)c1 (stereo not drawn) [Compound 42, N-hydroxy-N-[3-[α-(3-pyridyl)benzyloxy]benzyl]urea] | 60 | 300 | – |
| NC(=O)N(O)Cc1ccc(OC(c2ccccc2)c2cccnc2)cc1 (stereo not drawn) [Compound 43, N-hydroxy-N-[4-[α-(3-pyridyl)benzyloxy]benzyl]urea] | 50 | 500 | – |
| O=C(NC1CCCCC1)N(O)Cc1cccc(OC(c2ccccc2)c2cccnc2)c1 (stereo not drawn) [Compound 44, N'-cyclohexyl-N-hydroxy-N-[3-[α-(3-pyridyl)benzyloxy]benzyl]urea] | 5 | 200 | – |
| COc1cccc(NC(=O)N(O)Cc2cccc(OC(c3ccccc3)c3cccnc3)c2)c1 (stereo not drawn) [Compound 45, N-hydroxy-N'-(3-methoxyphenyl)-N-[3-[α-(3-pyridyl)benzyloxy]benzyl] urea] | 6 | 90 | – |
| CC(c1cccc(OC(c2ccccc2)c2cccnc2)c1)N(O)C(N)=O (stereo not drawn) [Compound 46, N-hydroxy-N-[3-[α-(3-pyridyl)benzyloxy]-α-methylbenzyl]urea] | 9 | 1000 | – |
| NC(=O)N(O)Cc1cccc(CC(c2ccccc2)c2cccnc2)c1 (stereo not drawn) [Compound 47, N-hydroxy-N-[3-[β-(3-pyridyl)phenethyl]benzyl]urea] | 20 | 300 | – |
| CC(c1cccc(CC(c2ccccc2)c2cccnc2)c1)N(O)C(N)=O (stereo not drawn) [Compound 48, N-hydroxy-N-[3-[β-(3-pyridyl)phenethyl]-α-methylbenzyl]urea] | 30 | 800 | – |
| CC(c1cc2ccccc2s1)N(O)C(N)=O (centres unmarked) [Compound A-64077] | – | – | 300 |
| O=C(O)/C=C/c1ccc(Cn2ccnc2)cc1 [OKY-046] | – | – | 260 |
